pKi: −log10 of the molar value.
Biological target: human GABA A receptor α5β3γ2 (Homo sapiens (Human), UniProt P18507+P31644)
Assay: [3H]flumazenil competition binding assay, human GABA A α5β3γ2 receptors expressed in HEK293 cells
Details: human receptor; displacement of [3H]flumazenil (0.5 nM); means of two determinations; read-out: hKi GABAAa5
In short: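 Ki values, each the mean of two runs, derive from displacement of [3H]flumazenil from human α5β3γ2 GABA A receptors transiently expressed in HEK293 membranes. Binding ran 1 h at 4° C in Krebs-tris, pH 7.5, before filter harvest and scintillation counting.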

Structure (SMILES)	pKi
O=C(NCC1(O)CC1)c1ccc(OCc2conc2-c2ccc(F)cc2)nc1 [Example 339, 6-[3-(4-Fluoro-phenyl)-isoxazol-4-ylmethoxy]-N-(1-hydroxy-cyclopropylmethyl)-nicotinamide]	7.64
Cc1onc(-c2ccccc2)c1COc1ccc(C(=O)N[C@H]2CCCC[C@H]2O)cn1 (racemic) [Example 199, N-((1S,2R) and (1R,2S)-2-Hydroxy-cyclohexyl)-6-(5-methyl-3-phenyl-isoxazol-4-ylmethoxy)-nicotinamide]	8.55
Cc1onc(-c2ccccc2)c1CNc1ccc(C(=O)NCCN2CCCC2=O)cn1 [Example 163, 6-[(5-Methyl-3-phenyl-isoxazol-4-ylmethyl)-amino]-N-[2-(2-oxo-pyrrolidin-1-yl)-ethyl]-nicotinamide]	7.43
Cc1onc(-c2cccc(Cl)c2)c1COc1ccc(C(=O)NC2CC2)cn1 [Example 100, 6-[3-(3-Chloro-phenyl)-5-methyl-isoxazol-4-ylmethoxy]-N-cyclopropyl-nicotinamide]	8.12
Cc1onc(-c2ccccc2)c1COc1ccc(Br)cn1 [Example 3, 5-Bromo-2-(5-methyl-3-phenyl-isoxazol-4-ylmethoxy)-pyridine]	7.51
Cc1onc(-c2ccc(Cl)cc2)c1COc1ccc(C(=O)N[C@H]2CCC[C@@H]2O)cn1 (single isomer, unassigned) [Example 260, 6-[3-(4-Chloro-phenyl)-5-methyl-isoxazol-4-ylmethoxy]-N-((1S,2S)-2-hydroxy-cyclopentyl)-nicotinamide or 6-[3-(4-chloro-phenyl)-5-methyl-isoxazol-4-ylmethoxy]-N-((1R,2R)-2-hydroxy-cyclopentyl)-nicotinamide]	9.30
Cc1onc(-c2ccc(F)cc2)c1COc1ccc(C(=O)NCC2CC2)cn1 [Example 106, N-Cyclopropylmethyl-6-[3-(4-fluoro-phenyl)-5-methyl-isoxazol-4-ylmethoxy]-nicotinamide]	8.82
COC(=O)C(=O)Nc1ccc(OCc2c(-c3ccccc3)noc2C)nc1 [Example 180, N-[6-(5-Methyl-3-phenyl-isoxazol-4-ylmethoxy)-pyridin-3-yl]-oxalamic acid methyl ester]	8.14
O=C(NCCO)c1ccc(OCc2conc2-c2ccccn2)nc1 [Example 363, N-(2-Hydroxy-ethyl)-6-(3-pyridin-2-yl-isoxazol-4-ylmethoxy)-nicotinamide]	7.70
COC(=O)c1ccc(OCc2c(-c3ccc(F)cn3)noc2C)nc1 [Example 286, 6-[3-(5-Fluoro-pyridin-2-yl)-5-methyl-isoxazol-4-ylmethoxy]-nicotinic acid methyl ester]	8.70
Cc1onc(-c2cccc(Cl)c2)c1COc1ccc(C(=O)NCC(F)(F)F)cn1 [Example 98, 6-[3-(3-Chloro-phenyl)-5-methyl-isoxazol-4-ylmethoxy]-N-(2,2,2-trifluoro-ethyl)-nicotinamide]	8.11
Cc1onc(-c2ccccc2)c1COc1cc(C(=O)NCC(F)(F)F)ccn1 [Example 58, 2-(5-Methyl-3-phenyl-isoxazol-4-ylmethoxy)-N-(2,2,2-trifluoro-ethyl)-isonicotinamide]	7.42
O=C(NCC(O)C(F)(F)F)c1ccc(OCc2conc2-c2ccc(F)cc2)nc1 (stereo not shown) [Example 333, 6-[3-(4-Fluoro-phenyl)-isoxazol-4-ylmethoxy]-N-(3,3,3-trifluoro-2-hydroxy-propyl)-nicotinamide]	7.88
O=C(NC1CC1)c1ccc(OCc2conc2-c2ccc(F)cn2)nc1 [Example 367, Cyclopropyl-6-[3-(5-fluoro-pyridin-2-yl)-isoxazol-4-ylmethoxy]-nicotinamide]	7.87
O=C(NCCCO)c1ccc(OCc2conc2-c2ccc(Cl)cc2)nc1 [Example 348, 6-[3-(4-Chloro-phenyl)-isoxazol-4-ylmethoxy]-N-(3-hydroxy-propyl)-nicotinamide]	7.99
C[C@H](CO)NC(=O)c1ccc(OCc2conc2-c2ccc(F)cc2)nc1 [Example 326, 6-[3-(4-Fluoro-phenyl)-isoxazol-4-ylmethoxy]-N—((R)-2-hydroxy-1-methyl-ethyl)-nicotinamide]	7.56
Cc1onc(-c2cccc(F)c2)c1CNc1ccc(C(=O)NC2CCOCC2)cn1 [Example 171, 6-{[3-(3-Fluoro-phenyl)-5-methyl-isoxazol-4-ylmethyl]-amino}-N-(tetrahydro-pyran-4-yl)-nicotinamide]	7.83
Cc1onc(-c2ccccc2)c1COc1ccc(NC(=O)C(C)C)cn1 [Example 181, N-[6-(5-Methyl-3-phenyl-isoxazol-4-ylmethoxy)-pyridin-3-yl]-isobutyramide]	7.72
Cc1onc(-c2ccc(F)cn2)c1COc1ccc(C(=O)NCCO)cn1 [Example 295, 6-[3-(5-Fluoro-pyridin-2-yl)-5-methyl-isoxazol-4-ylmethoxy]-(2-hydroxy-ethyl)-nicotinamide]	9.40
Cc1onc(-c2cccc(F)c2)c1COc1ccc(C(=O)N2CCSCC2)cn1 [Example 95, {6-[3-(3-Fluoro-phenyl)-5-methyl-isoxazol-4-ylmethoxy]-pyridin-3-yl}-thiomorpholin-4-yl-methanone]	7.34
CNC(=O)c1ccc(OCc2c(-c3ccccn3)noc2C)nc1 [Example 279, Methyl-6-(5-methyl-3-pyridin-2-yl-isoxazol-4-ylmethoxy)-nicotinamide]	8.89
Cc1onc(-c2ccccc2F)c1COc1ccc(C(=O)NC(C)C)cn1 [Example 86, 6-[3-(2-Fluoro-phenyl)-5-methyl-isoxazol-4-ylmethoxy]-N-isopropyl-nicotinamide]	8.44
Cc1onc(-c2ccccn2)c1COc1ccc(C(=O)N2CCS(=O)(=O)CC2)cn1 [Example 276, (1,1-Dioxo-1,6-thiomorpholin-4-yl)-[6-(5-methyl-3-pyridin-2-yl-isoxazol-4-ylmethoxy)-pyridin-3-yl]-methanone]	8.00

More lines, in order of rising pKi, values ahead:

pKi	Structure (SMILES)
7.06	Cc1onc(-c2ccccc2)c1CNc1ccccn1 [Example 160, (5-Methyl-3-phenyl-isoxazol-4-ylmethyl)-pyridin-2-yl-amine]
7.26	CC(C)(C)OC(=O)N1CC(NC(=O)c2ccc(OCc3conc3-c3ccc(Cl)cc3)nc2)C1 [Example 351, 3-({6-[3-(4-Chloro-phenyl)-isoxazol-4-ylmethoxy]-pyridine-3-carbonyl}-amino)-azetidine-1-carboxylic acid tert-butyl ester]
7.46	COC(=O)c1cnc(OCc2c(-c3ccccc3)noc2C)c(Br)c1 [Example 64, 5-Bromo-6-(5-methyl-3-phenyl-isoxazol-4-ylmethoxy)-nicotinic acid methyl ester]
7.75	O=C(NC1CCOCC1)c1ccc(OCc2conc2-c2ccccc2)nc1 [Example 322, 6-(3-Phenyl-isoxazol-4-ylmethoxy)-N-(tetrahydro-pyran-4-yl)-nicotinamide]
7.81	Cc1onc(-c2cccc(F)c2)c1CNc1ccc(C(=O)NC(C)C)cn1 [Example 169, 6-{[3-(3-Fluoro-phenyl)-5-methyl-isoxazol-4-ylmethyl]-amino}-N-isopropyl-nicotinamide]
7.85	COC(=O)c1ccc(OCc2c(-c3ccccc3)noc2C)nc1 [Example 7, 6-(5-Methyl-3-phenyl-isoxazol-4-ylmethoxy)-nicotinic acid methyl ester]
7.90	O=C(NC1CCOCC1)c1ccc(OCc2c(-c3ccc(F)cc3)noc2C(F)(F)F)nc1 [Example 144, 6-[3-(4-Fluoro-phenyl)-5-trifluoromethyl-isoxazol-4-ylmethoxy]-N-(tetrahydro-pyran-4-yl)-nicotinamide]
8.35	COC(=O)c1ccc(OCc2c(-c3ccc(Cl)cc3)noc2C)nc1 [Example 115, 6-[3-(4-Chloro-phenyl)-5-methyl-isoxazol-4-ylmethoxy]-nicotinic acid methyl ester]
8.62	Cc1onc(-c2ccc(F)cc2F)c1COc1ccc(C(=O)NC(C)C)cn1 [Example 263, 6-[3-(2,4-Difluoro-phenyl)-5-methyl-isoxazol-4-ylmethoxy]-N-isopropyl-nicotinamide]
8.64	CC[C@H](CO)NC(=O)c1ccc(OCc2c(-c3ccccc3)noc2C)nc1 [Example 209, N—((R)-1-Hydroxymethyl-propyl)-6-(5-methyl-3-phenyl-isoxazol-4-ylmethoxy)-nicotinamide]
8.66	Cc1onc(-c2ccccc2)c1COc1ccc(C(=O)NCCCO)cn1 [Example 219, N-(3-Hydroxy-propyl)-6-(5-methyl-3-phenyl-isoxazol-4-ylmethoxy)-nicotinamide]
8.68	Cc1onc(-c2ccc(Cl)cc2)c1COc1ccc(C(=O)NCC(F)(F)F)cn1 [Example 117, 6-[3-(4-Chloro-phenyl)-5-methyl-isoxazol-4-ylmethoxy]-N-(2,2,2-trifluoro-ethyl)-nicotinamide]
8.92	Cc1onc(-c2ccc(F)cc2)c1COc1ccc(C(=O)NCC(F)(F)F)cn1 [Example 105, 6-[3-(4-Fluoro-phenyl)-5-methyl-isoxazol-4-ylmethoxy]-N-(2,2,2-trifluoro-ethyl)-nicotinamide]
8.96	Cc1onc(-c2ccccc2)c1COc1ccc(C(=O)Nc2cnn(C)c2)cn1 [Example 237, 6-(5-Methyl-3-phenyl-isoxazol-4-ylmethoxy)-N-(1-methyl-1H-pyrazol-4-yl)-nicotinamide]
9.10	Cc1onc(-c2ccc(Cl)cc2)c1COc1ccc(C(=O)Nc2cnn(C)c2)cn1 [Example 255, 6-[3-(4-Chloro-phenyl)-5-methyl-isoxazol-4-ylmethoxy]-N-(1-methyl-1H-pyrazol-4-yl)-nicotinamide]
9.22	Cc1onc(-c2ccc(Cl)cn2)c1COc1ccc(C(=O)N2CCS(=O)(=O)CC2)cn1 [Example 307, {6-[3-(5-Chloro-pyridin-2-yl)-5-methyl-isoxazol-4-ylmethoxy]-pyridin-3-yl}-(1,1-dioxo-1,6-thiomorpholin-4-yl)-methanone]
9.30	Cc1onc(-c2ccc(Cl)cc2)c1COc1ccc(C(=O)N[C@@H](C)CO)cn1 [Example 257, 6-[3-(4-Chloro-phenyl)-5-methyl-isoxazol-4-ylmethoxy]-N—((S)-2-hydroxy-1-methyl-ethyl)-nicotinamide]
